# According to the SangsterLogP compilation:
# Assay: method code SF-AS, from DOI: 10.1135/cccc19851642
row,logP,SMILES
1,2.28,CCC(C)NC(=O)C=Cc1ccc([N+](=O)[O-])o1 (stereo not given)
2,2.41,COC(=O)C(C#N)=Cc1ccc(Br)o1
3,3.09,CC(C)(C)OC(=O)C=Cc1ccc([N+](=O)[O-])o1
4,3.4,CCCCCOC(=O)C=Cc1ccc([N+](=O)[O-])o1
5,3.09,CCC(C)OC(=O)/C=C/c1ccc([N+](=O)[O-])o1 (stereo not given)
6,3.7,CCCCCCCCCCCC(C)NC(=O)C=Cc1ccc([N+](=O)[O-])o1 (stereo not given)
7,2.23,CC(C)CNC(=O)C=Cc1ccc([N+](=O)[O-])o1
8,2.75,COC(=O)C(C#N)=Cc1ccc(I)o1
9,0.82,CN(C)C(=O)/C=C/c1ccc([N+](=O)[O-])o1
10,3.14,CC(C)COC(=O)/C=C/c1ccc([N+](=O)[O-])o1
11,2.45,O=[N+]([O-])c1ccc(C=CBr)o1
12,2.36,CCCCNC(=O)C=Cc1ccc([N+](=O)[O-])o1
13,0.68,O=C(O)/C=C/c1ccc([N+](=O)[O-])o1
14,0.98,CNC(=O)C=Cc1ccc([N+](=O)[O-])o1
15,1.86,CCCNC(=O)C=Cc1ccc([N+](=O)[O-])o1
16,2.1,CCOC(=O)/C=C/c1ccc([N+](=O)[O-])o1
17,2.64,CC(C)OC(=O)/C=C/c1ccc([N+](=O)[O-])o1
18,2.61,CC(C)(C)CNC(=O)C=Cc1ccc([N+](=O)[O-])o1
19,2.83,CCCCOC(=O)C=Cc1ccc([N+](=O)[O-])o1
20,2.67,CCCOC(=O)C=Cc1ccc([N+](=O)[O-])o1
21,1.8,CC(C)NC(=O)/C=C/c1ccc([N+](=O)[O-])o1
22,2.33,CC(C)(C)NC(=O)C=Cc1ccc([N+](=O)[O-])o1
23,2.09,COC(=O)/C(C#N)=C/c1ccc(C)o1
24,2.61,COC(=O)/C(C#N)=C/c1ccc(SC)o1
25,2.5,CCOC(=O)C(=Cc1ccc([N+](=O)[O-])o1)C(=O)OCC
26,0.65,NC(=O)/C=C/c1ccc([N+](=O)[O-])o1
27,1.39,CCNC(=O)C=Cc1ccc([N+](=O)[O-])o1

row,SMILES,logP
1,N#CC(C#N)=Cc1ccc(I)o1,2.42
2,O=[N+]([O-])/C=C/c1ccc([N+](=O)[O-])o1,1.3
3,CSc1ccc(C=C(C#N)C#N)o1,2.45
